As a reminder, the IC50 is the midpoint of a concentration-inhibition curve.

This is an account of results in US10239873B2, “7-azaindole or 4,7-diazaindole derivatives as IKKϵ epsilon and TBK1 inhibitor and pharmaceutical composition comprising same” (GREEN CROSS CORPORATION, priority 2015, dated 2019).

One experiment concerns the target T1, TBK1 (Homo sapiens, UniProt Q9UHD2).
T1 construct: purchased Promega (Invitrogen is also named in the same bracket) V4158; PR8031B; V3991 (not assigned to the two kinases)
T1 sequence (Q9UHD2 1-729): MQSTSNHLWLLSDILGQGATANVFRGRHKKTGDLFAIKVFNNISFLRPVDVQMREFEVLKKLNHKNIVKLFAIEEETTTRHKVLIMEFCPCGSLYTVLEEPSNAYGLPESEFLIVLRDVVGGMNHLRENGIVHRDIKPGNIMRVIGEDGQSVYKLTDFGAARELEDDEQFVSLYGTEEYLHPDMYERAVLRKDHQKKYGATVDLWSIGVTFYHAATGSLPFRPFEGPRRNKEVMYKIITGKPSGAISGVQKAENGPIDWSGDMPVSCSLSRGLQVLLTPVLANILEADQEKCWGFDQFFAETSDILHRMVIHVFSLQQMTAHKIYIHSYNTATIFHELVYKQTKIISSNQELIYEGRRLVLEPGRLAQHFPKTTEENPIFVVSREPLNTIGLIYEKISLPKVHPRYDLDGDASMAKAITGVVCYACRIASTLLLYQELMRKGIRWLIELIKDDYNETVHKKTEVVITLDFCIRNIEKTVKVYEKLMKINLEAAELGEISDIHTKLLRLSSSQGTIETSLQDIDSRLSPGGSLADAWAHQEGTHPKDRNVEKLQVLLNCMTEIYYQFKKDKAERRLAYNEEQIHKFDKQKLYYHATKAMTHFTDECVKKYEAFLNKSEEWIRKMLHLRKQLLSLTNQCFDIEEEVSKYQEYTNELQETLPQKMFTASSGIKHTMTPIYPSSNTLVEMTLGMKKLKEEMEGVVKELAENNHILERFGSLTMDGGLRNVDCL
As to the kind of experiment: ADP-Glo Kinase Assay, inhibition activity on TBK1. The experiment is classed as biochemical. In outline:
(§1)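 Kinase activity measured with the ADP-Glo luminescent ADP-detection kit per manufacturer's protocol, using IKKε or TBK1 kinase enzyme systems. Reaction buffer: 40 mM Tris (pH 7.5), 20 mM MgCl2, 0.1 mg/mL BSA; luminescence read on a luminometer.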
For orientation: In ADP-Glo the light output rises with the ADP produced.

In another experiment the target is T2, IKKε (Homo sapiens, UniProt Q14164).
T2 construct: purchased Promega and/or Invitrogen V4158; PR8031B; V3991 (not assigned to the two kinases)
T2 sequence (Q14164 1-716): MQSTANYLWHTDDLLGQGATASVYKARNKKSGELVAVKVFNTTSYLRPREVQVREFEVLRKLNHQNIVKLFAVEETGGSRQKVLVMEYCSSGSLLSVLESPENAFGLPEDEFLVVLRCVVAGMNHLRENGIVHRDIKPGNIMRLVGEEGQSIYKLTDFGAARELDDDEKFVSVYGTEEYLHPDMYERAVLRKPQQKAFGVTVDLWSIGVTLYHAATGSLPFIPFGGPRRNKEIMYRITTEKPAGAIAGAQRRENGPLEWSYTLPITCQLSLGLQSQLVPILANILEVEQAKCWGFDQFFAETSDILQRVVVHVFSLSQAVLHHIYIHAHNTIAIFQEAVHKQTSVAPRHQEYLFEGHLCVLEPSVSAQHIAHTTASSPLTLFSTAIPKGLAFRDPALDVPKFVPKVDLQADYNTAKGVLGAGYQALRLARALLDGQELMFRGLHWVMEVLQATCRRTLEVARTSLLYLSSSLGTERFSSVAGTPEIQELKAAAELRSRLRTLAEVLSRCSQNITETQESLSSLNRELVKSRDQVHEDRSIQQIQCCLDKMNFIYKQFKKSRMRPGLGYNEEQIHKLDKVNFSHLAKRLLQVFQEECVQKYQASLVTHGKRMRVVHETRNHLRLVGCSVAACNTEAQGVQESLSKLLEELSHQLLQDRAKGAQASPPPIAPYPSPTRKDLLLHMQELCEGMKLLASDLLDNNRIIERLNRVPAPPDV
Description: ADP-Glo Kinase Assay, inhibition activity on IKKε. The experiment is classed as biochemical. In outline:
as §1

With `O=C(c1cccs1)N1CC=C(c2c[nH]c3ncc(Nc4ccc(CN5CCOCC5)cc4)cc23)CC1` [Example 250, (4-(5-(4-(morpholinomethyl)phenylamino)-1H-pyrrolo[2,3-b]pyridin-3-yl)-5,6-dihydropyridin-1(2H)-yl)(thiophen-2-yl)methanone], the IC50 on TBK1 is 170 nM; against IKKε it was 840 nM.
